# Assay results as given in patent US20240309016A1, “MACROCYCLIC HETEROCYCLE COMPOUNDS AND USE THEREOF” (TAKEDA PHARMACEUTICAL COMPANY LIMITED, priority 2023, published 2024).
# Target: T1, human OX2 receptor (Homo sapiens, UniProt O43614)
# T1 construct: expressed in transfected cells
# T1 sequence (O43614 1-444): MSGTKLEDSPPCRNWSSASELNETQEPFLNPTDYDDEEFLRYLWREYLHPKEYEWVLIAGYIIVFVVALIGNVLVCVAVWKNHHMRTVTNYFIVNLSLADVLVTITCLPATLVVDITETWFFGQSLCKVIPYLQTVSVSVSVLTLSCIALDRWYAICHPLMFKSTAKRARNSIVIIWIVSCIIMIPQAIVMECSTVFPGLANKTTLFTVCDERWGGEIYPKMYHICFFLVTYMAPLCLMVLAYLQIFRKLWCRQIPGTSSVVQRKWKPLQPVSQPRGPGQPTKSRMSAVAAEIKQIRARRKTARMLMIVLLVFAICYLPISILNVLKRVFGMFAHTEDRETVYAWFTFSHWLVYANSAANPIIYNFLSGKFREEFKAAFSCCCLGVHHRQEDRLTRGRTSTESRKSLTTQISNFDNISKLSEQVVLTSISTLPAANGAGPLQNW
# Experiment: Measurement of orexin type 2 receptor agonist activity (Experimental Example 2; Fluo-4 AM calcium fluorescence, FDSS μCELL)
# Type: cell-based
# Conditions: compound at 3 μM; CHO cells expressing human OX2 receptor; DMSO = 0%, 10 nM orexin A (human) = 100%
# Method in brief: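 Agonism was tested in CHO-K1 cells stably expressing human OX2 receptor (residues 1-444), loaded with Fluo-4 AM plus probenecid. Calcium fluorescence was recorded for 1 min 40 s after compound addition. Activity (%) was scaled between DMSO (0%) and 10 nM orexin A (100%) and reported at 3 μM compound.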
row,Compound,"OX2R agonist activity (3 μM, %) [%]"
1,"CCS(=O)(=O)N[C@@H]1[C@@H]2Cc3cccc(c3F)Oc3nc(ccc3C)C(C)NC(=O)N2CC1(F)F (stereo partly drawn) [Example 49, N-[(15aS,16R)-17,17,20-trifluoro-3,7-dimethyl-1-oxo-2,3,15a,16,17,18-hexahydro-1H,15H-4,8-(azeno)-14,10-(metheno)pyrrolo[1,2-j][1,8,10]oxadiazacyclo-heptadecin-16-yl]ethanesulfonamide (optical isomer)]",97
2,"CCS(=O)(=O)N[C@H]1[C@@H](F)CN2C(=O)COc3ccc(C(F)F)c(n3)Oc3cccc(c3)C[C@@H]12 [Example 87, N-[(15aS,16R,17S)-7-(difluoromethyl)-17-fluoro-1-oxo-1,2,15a,16,17,18-hexahydro-15H-4,8-(azeno)-14,10-(metheno)pyrrolo[1,2-d][1,12,4]dioxazacyclo-heptadecin-16-yl]ethanesulfonamide]",105
3,"CCS(=O)(=O)N[C@@H]1[C@@H]2Cc3cccc(c3F)Oc3nc(c(F)cc3Cl)CNC(=O)N2CC1(F)F [Example 35, N-[(15aS,16R)-7-chloro-5,17,17,20-tetrafluoro-1-oxo-2,3,15a,16,17,18-hexahydro-1H,15H-4,8-(azeno)-10,14-(metheno)pyrrolo[1,2-j][1,8,10]oxadiazacyclo-heptadecin-16-yl]ethanesulfonamide]",93
4,"CS(=O)(=O)N[C@@H]1[C@@H]2Cc3cccc(c3F)Oc3nc(ccc3Cl)OCC(=O)N2CC1(F)F [Example 62, N-[(15aS,16R)-7-chloro-17,17,20-trifluoro-1-oxo-1,2,15a,16,17,18-hexahydro-15H-4,8-(azeno)-14,10-(metheno)pyrrolo[1,2-d][1,12,4]dioxazacyclo-heptadecin-16-yl]methanesulfonamide]",102
5,"Cc1ccc2nc1Oc1cccc(c1F)C[C@H]1[C@@H](NS(=O)(=O)C3CC3)C(F)(F)CN1C(=O)NC2 [Example 23, N-[(15aS,16R)-17,17,20-trifluoro-7-methyl-1-oxo-2,3,15a,16,17,18-hexahydro-1H,15H-4,8-(azeno)-14,10-(metheno)pyrrolo[1,2-j][1,8,10]oxadiazacyclo-heptadecin-16-yl]cyclopropanesulfonamide]",96
6,"CCS(=O)(=O)N[C@@H]1[C@@H]2Cc3cccc(c3F)Oc3nc(ccc3C)N(C)CC(=O)N2CC1(F)F [Example 48, N-[(15aS,16R)-17,17,20-trifluoro-3,7-dimethyl-1-oxo-2,3,15a,16,17,18-hexahydro-1H,15H-4,8-(azeno)-14,10-(metheno)pyrrolo[1,2-j][1,7,10]oxadiazacyclo-heptadecin-16-yl]ethanesulfonamide]",67
7,"CS(=O)(=O)N[C@H]1CCN2C(=O)NCc3ccc(C(F)F)c(n3)Oc3cccc(c3)C[C@@H]12 [Example 8, N-[(15aS,16S)-7-(difluoromethyl)-1-oxo-2,3,15a,16,17,18-hexahydro-1H,15H-4,8-(azeno)-14,10-(metheno)pyrrolo[1,2-j][1,8,10]oxadiazacyclo-heptadecin-16-yl]methanesulfonamide]",100
8,"CCS(=O)(=O)N[C@@H]1[C@@H]2Cc3cccc(c3F)Oc3nc(ccc3C)OCC(=O)N2CC1(F)F [Example 45, N-[(15aS,16R)-17,17,20-trifluoro-7-methyl-1-oxo-1,2,15a,16,17,18-hexahydro-15H-4,8-(azeno)-14,10-(metheno)pyrrolo[1,2-d][1,12,4]dioxazacyclo-heptadecin-16-yl]ethanesulfonamide]",105
9,"CS(=O)(=O)N[C@@H]1[C@@H]2Cc3cccc(c3F)Oc3nc(ncc3Cl)OCC(=O)N2CC1(F)F [Example 64, N-[(15aS,16R)-7-chloro-17,17,20-trifluoro-1-oxo-1,2,15a,16,17,18-hexahydro-15H-4,8-(azeno)-10,14-(metheno)pyrrolo[2,1-n][1,7,3,15]dioxadiazacyclo-heptadecin-16-yl]methanesulfonamide]",105
10,"CCS(=O)(=O)N[C@H]1CCN2C(=O)NCc3nc(c(F)cc3F)Oc3cccc(c3)C[C@@H]12 [Example 20, N-[(15aS,16S)-5,7-difluoro-1-oxo-2,3,15a,16,17,18-hexahydro-1H,15H-4,8-(azeno)-14,10-(metheno)pyrrolo[1,2-j][1,8,10]oxadiazacyclo-heptadecin-16-yl]ethanesulfonamide]",105
11,"CCS(=O)(=O)N[C@H]1[C@@H](F)CN2C(=O)COc3ccc(Br)c(n3)Oc3cccc(c3)C[C@@H]12 [Example 76, N-[(15aS,16R,17S)-7-bromo-17-fluoro-1-oxo-1,2,15a,16,17,18-hexahydro-15H-4,8-(azeno)-14,10-(metheno)pyrrolo[1,2-d][1,12,4]dioxazacyclo-heptadecin-16-yl]ethanesulfonamide]",96
12,"CS(=O)(=O)N[C@@H]1[C@@H]2Cc3cccc(c3)Oc3nc(ccc3Cl)CNC(=O)N2CC1(F)F [Example 92, N-[(15aS,16R)-7-chloro-17,17-difluoro-1-oxo-2,3,15a,16,17,18-hexahydro-1H,15H-4,8-(azeno)-14,10-(metheno)pyrrolo[1,2-j][1,8,10]oxadiazacyclohepta-decin-16-yl]methanesulfonamide]",106
13,"CS(=O)(=O)N[C@@H]1[C@@H]2Cc3cccc(c3F)Oc3nc(cs3)CNC(=O)N2CC1(F)F [Example 85, N-[(14aS,15R)-16,16,19-trifluoro-1-oxo-2,3,14a,15,16,17-hexahydro-1H,14H-4,7-(azeno)-9,13-(metheno)pyrrolo[1,2-i][1,3,7,9]oxathiadiazacyclo-hexadecin-15-yl]methanesulfonamide]",95
14,"CN(C)S(=O)(=O)N[C@H]1[C@@H](F)CN2C(=O)NCc3ccc(Cl)c(n3)Oc3cccc(c3F)C[C@@H]12 [Example 34, N′-[(15aS,16R,17S)-7-chloro-17,20-difluoro-1-oxo-2,3,15a,16,17,18-hexahydro-1H,15H-4,8-(azeno)-14,10-(metheno)pyrrolo[1,2-j][1,8,10]oxadiazacyclo-heptadecin-16-yl]-N,N-dimethylsulfuric diamide]",93
15,"CCS(=O)(=O)N[C@H]1[C@@H](F)CN2C(=O)COc3ccc(C)c(n3)Oc3cccc(c3)C[C@@H]12 [Example 78, N-[(15aS,16R,17S)-17-fluoro-7-methyl-1-oxo-1,2,15a,16,17,18-hexahydro-15H-4,8-(azeno)-14,10-(metheno)pyrrolo[1,2-d][1,12,4]dioxazacyclo-heptadecin-16-yl]ethanesulfonamide]",97
16,"CCS(=O)(=O)N[C@H]1CCN2C(=O)NCc3ccc(C)c(n3)Oc3cccc(c3)C[C@@H]12 [Example 3, N-[(15aS,16S)-7-methyl-1-oxo-2,3,15a,16,17,18-hexahydro-1H,15H-4,8-(azeno)-10,14-(metheno)pyrrolo[1,2-j][1,8,10]oxadiazacyclo-heptadecin-16-yl]ethanesulfonamide]",101
17,"CS(=O)(=O)N[C@H]1[C@@H](F)CN2C(=O)OCc3ccc(C(F)F)c(n3)Oc3cccc(c3F)C[C@@H]12 [Example 38, N-[(15aS,16R,17S)-7-(difluoromethyl)-17,20-difluoro-1-oxo-15a,16,17,18-tetrahydro-1H,3H,15H-8,4-(azeno)-10,14-(metheno)pyrrolo[1,2-c][1,11,3]dioxazacyclo-heptadecin-16-yl]methanesulfonamide]",80
18,"CCS(=O)(=O)N[C@H]1[C@@H](F)CN2C(=O)COc3ccc(Cl)c(n3)Cc3cccc(c3F)C[C@@H]12 [Example 72, N-[(15aS,16R,17S)-7-chloro-17,20-difluoro-1-oxo-1,2,15a,16,17,18-hexahydro-9H,15H-4,8-(azeno)-14,10-(metheno)pyrrolo[1,2-d][1,4]oxazacycloheptadecin-16-yl]ethanesulfonamide]",104
19,"CCS(=O)(=O)N[C@@H]1[C@@H]2Cc3cccc(c3F)Oc3ccc(F)c(n3)CNC(=O)N2CC1(F)F [Example 50, N-[(15aS,16R)-5,17,17,20-tetrafluoro-1-oxo-2,3,15a,16,17,18-hexahydro-1H,15H-4,8-(azeno)-14,10-(metheno)pyrrolo[1,2-j][1,8,10]oxadiazacyclo-heptadecin-16-yl]ethanesulfonamide]",88
20,"Cc1ccc2nc1COc1cccc(c1F)C[C@H]1[C@@H](NS(C)(=O)=O)C(F)(F)CN1C(=O)CO2 [Example 66, N-[(16aS,17R)-18,18,21-trifluoro-7-methyl-1-oxo-1,2,16a,17,18,19-hexahydro-9H,16H-4,8-(azeno)-11,15-(metheno)pyrrolo[1,2-d][1,12,4]dioxazacyclo-octadecin-17-yl]methanesulfonamide]",97
